Assay results as given in patent publication US11814367B2, “Inhibitors of glycogen synthase 1 (GYS1) and methods of use thereof” (Maze Therapeutics, Inc., priority 2021, dated 2023).

Key:
[1] = tested on: hGYS1 enzyme / glycogen synthesis in HeLa cells; assay: GYS1 cell based assay (glycogen synthesis, Glucose-glo); design: species or system human; details: Homo sapiens, HeLa, 24 h, 24 h incubation, 20 mM glucose, geometric mean of at least 2 runs
In short: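 HeLa cells starved 24 h in medium containing only 1× Glutamax were plated onto compound in medium with 20 mM glucose (1% DMSO final) for 24 h, 37 °C, 5% CO2. Acid lysates were Tris-quenched, glucoamylase-digested (pH 5.3, 1 h, 37 °C) and read by Glucose-glo luminescence. IC50 came from Hill fits, as geometric mean of ≥2 runs.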

[2] = target: hGYS1 enzyme (recombinant hGYS1/GN1 protein) (Homo sapiens (Human), UniProt P13807); assay: GYS1 coupled enzyme assay (PK/LDH); assay type: biochemical; details: hGYS1/GN1 50 nM, UDP-Glucose 0.8 mM, G6P 1 mM; geometric mean of at least 2 runs
[3] = target: hGYS2 enzyme (recombinant hGYS2/GN1 protein) (Homo sapiens (Human), UniProt P54840); assay: GYS2 coupled enzyme assay (PK/LDH); assay type: biochemical; details: geometric mean of at least 2 assay runs on separate days, read-out: Avg_IC50
In short: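 Read-out: NADH loss at 340 nm, read each minute for 10 min, slope normalized to controls, duplicate % inhibition fit to Hill (0–100). Enzyme: 200 nM hGYS2/GN1; substrate 2 mM UDP-glucose plus 0.2% glycogen and 2 mM G6P; pH 7.5 Tris, 2.5% DMSO.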

Sequence of hGYS2 enzyme (recombinant hGYS2/GN1 protein) (P54840 whole entry): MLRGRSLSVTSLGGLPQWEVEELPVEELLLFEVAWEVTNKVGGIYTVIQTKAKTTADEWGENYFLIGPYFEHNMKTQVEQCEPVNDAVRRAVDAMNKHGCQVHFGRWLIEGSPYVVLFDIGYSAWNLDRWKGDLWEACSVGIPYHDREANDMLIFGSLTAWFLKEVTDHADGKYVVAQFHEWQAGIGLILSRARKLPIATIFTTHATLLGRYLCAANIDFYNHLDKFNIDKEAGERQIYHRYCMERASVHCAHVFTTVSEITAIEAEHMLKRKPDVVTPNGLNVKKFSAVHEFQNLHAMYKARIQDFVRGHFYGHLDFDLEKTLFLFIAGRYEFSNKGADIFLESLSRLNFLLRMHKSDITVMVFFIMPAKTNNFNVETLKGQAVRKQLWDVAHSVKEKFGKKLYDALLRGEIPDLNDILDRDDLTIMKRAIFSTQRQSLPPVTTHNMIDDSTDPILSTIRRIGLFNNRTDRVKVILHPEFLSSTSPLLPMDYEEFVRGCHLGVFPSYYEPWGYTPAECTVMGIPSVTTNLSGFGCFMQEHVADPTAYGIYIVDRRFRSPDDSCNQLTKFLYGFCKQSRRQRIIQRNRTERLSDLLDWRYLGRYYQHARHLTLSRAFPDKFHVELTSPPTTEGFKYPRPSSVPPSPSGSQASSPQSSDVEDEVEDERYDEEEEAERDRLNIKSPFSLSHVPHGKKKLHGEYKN
Sequence of hGYS2 enzyme (recombinant hGYS2/GN1 protein) (P46976 whole entry partner): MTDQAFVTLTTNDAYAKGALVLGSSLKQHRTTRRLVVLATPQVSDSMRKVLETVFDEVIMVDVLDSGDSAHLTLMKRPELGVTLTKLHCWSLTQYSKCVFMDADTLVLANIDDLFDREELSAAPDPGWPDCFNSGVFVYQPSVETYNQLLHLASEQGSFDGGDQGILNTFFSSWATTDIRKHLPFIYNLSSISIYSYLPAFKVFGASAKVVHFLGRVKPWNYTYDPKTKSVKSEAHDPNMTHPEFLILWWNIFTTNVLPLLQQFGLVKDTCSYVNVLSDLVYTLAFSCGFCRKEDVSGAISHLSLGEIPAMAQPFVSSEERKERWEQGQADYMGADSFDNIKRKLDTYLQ
Sequence of hGYS1 enzyme (recombinant hGYS1/GN1 protein) (P13807 whole entry): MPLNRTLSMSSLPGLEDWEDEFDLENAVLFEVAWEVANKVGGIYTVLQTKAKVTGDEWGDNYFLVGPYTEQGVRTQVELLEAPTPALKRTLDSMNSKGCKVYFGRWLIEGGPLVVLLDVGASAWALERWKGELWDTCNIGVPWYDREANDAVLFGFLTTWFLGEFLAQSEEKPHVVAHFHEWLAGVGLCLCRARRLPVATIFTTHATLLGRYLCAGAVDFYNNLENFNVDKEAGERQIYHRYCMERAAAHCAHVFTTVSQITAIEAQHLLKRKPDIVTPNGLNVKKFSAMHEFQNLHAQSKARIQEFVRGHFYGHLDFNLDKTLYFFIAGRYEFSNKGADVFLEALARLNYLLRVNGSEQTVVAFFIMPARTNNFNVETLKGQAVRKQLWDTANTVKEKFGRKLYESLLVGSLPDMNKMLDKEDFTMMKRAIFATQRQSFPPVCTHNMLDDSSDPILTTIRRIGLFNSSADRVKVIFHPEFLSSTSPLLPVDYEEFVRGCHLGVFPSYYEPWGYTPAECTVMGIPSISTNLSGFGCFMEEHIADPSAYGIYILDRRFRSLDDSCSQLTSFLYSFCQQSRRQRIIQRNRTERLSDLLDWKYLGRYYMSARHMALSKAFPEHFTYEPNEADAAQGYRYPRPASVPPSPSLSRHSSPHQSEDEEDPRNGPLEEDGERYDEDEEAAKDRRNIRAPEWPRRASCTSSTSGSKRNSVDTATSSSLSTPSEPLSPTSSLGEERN
Sequence of hGYS1 enzyme (recombinant hGYS1/GN1 protein) (P46976 whole entry partner): as the sequence (P46976 whole entry partner) above

| SMILES | IC50 [1] [µM] | IC50 [2] [µM] | IC50 [3] [µM] |
| --- | --- | --- | --- |
| CN(C)c1cnnn1CC(=O)N1C[C@H](F)C[C@H]1C(=O)N[C@@H](c1ccccc1)c1ccc(C2CC2)c(F)n1 [Compound 298, (2S,4R)-N-[(S)-(5-cyclopropyl-6-fluoropyridin-2-yl)(phenyl)methyl]-1-{2-[5-(dimethylamino)-1H-1,2,3-triazol-1-yl]acetyl}-4-fluoropyrrolidine-2-carboxamide] | 0.26 | 0.012 | > 100 |
| CN(C)C(=O)NCC(=O)N1C[C@H](F)C[C@H]1C(=O)N[C@@H](c1ccccc1)c1ccc(C2CC2)c(F)n1 [Compound 300, (2S,4R)-N-[(S)-(5-cyclopropyl-6-fluoropyridin-2-yl)(phenyl)methyl]-1-{2-[(dimethylcarbamoyl)amino]acetyl}-4-fluoropyrrolidine-2-carboxamide] | 0.57 | 0.028 | > 100 |
| CNC(=O)NCC(=O)N1C[C@H](F)C[C@H]1C(=O)N[C@@H](c1ccccc1)c1ccc(C2CC2)c(F)n1 [Compound 301, (2S,4R)-N-[(S)-(5-cyclopropyl-6-fluoropyridin-2-yl)(phenyl)methyl]-4-fluoro-1-{2-[(methylcarbamoyl)amino]acetyl}pyrrolidine-2-carboxamide] | 0.9 | 0.046 | > 100 |
| Cc1nccc(NCC(=O)N2C[C@H](F)C[C@H]2C(=O)N[C@@H](c2ccccc2)c2ccc(C3CC3)c(F)n2)n1 [Compound 308, (2S,4R)-N-[(S)-(5-cyclopropyl-6-fluoropyridin-2-yl)(phenyl)methyl]-4-fluoro-1-{2-[(2-methylpyrimidin-4-yl)amino]acetyl}pyrrolidine-2-carboxamide] | 0.33 | 0.011 | > 100 |

Second part, the molecule after the results:

| IC50 [1] [µM] | IC50 [2] [µM] | IC50 [3] [µM] | SMILES |
| --- | --- | --- | --- |
| 0.42 | 0.022 | > 100 | CN(C)c1cn(CC(=O)N2C[C@H](F)C[C@H]2C(=O)N[C@@H](c2ccccc2)c2ccc(C3CC3)c(F)n2)nn1 [Compound 299, (2S,4R)-N-[(S)-(5-cyclopropyl-6-fluoropyridin-2-yl)(phenyl)methyl]-1-{2-[4-(dimethylamino)-1H-1,2,3-triazol-1-yl]acetyl}-4-fluoropyrrolidine-2-carboxamide] |
| 1.52 | 0.036 | > 100 | Cn1nc(CC(=O)N2C[C@H](F)C[C@H]2C(=O)N[C@@H](c2ccccc2)c2ccc(C3CC3)c(F)n2)[nH]c1=O [Compound 303, (2S,4R)-N-[(S)-(5-cyclopropyl-6-fluoropyridin-2-yl)(phenyl)methyl]-4-fluoro-1-[2-(1-methyl-5-oxo-4,5-dihydro-1H-1,2,4-triazol-3-yl)acetyl]pyrrolidine-2-carboxamide] |
| 2.33 | 0.073 | > 100 | Cn1c(CC(=O)N2C[C@H](F)C[C@H]2C(=O)N[C@@H](c2ccccc2)c2ccc(C3CC3)c(F)n2)n[nH]c1=O [Compound 304, (2S,4R)-N-[(S)-(5-cyclopropyl-6-fluoropyridin-2-yl)(phenyl)methyl]-4-fluoro-1-[2-(4-methyl-5-oxo-4,5-dihydro-1H-1,2,4-triazol-3-yl)acetyl]pyrrolidine-2-carboxamide] |
| 0.81 | 0.078 | > 100 | Cn1nc(CC(=O)N2C[C@H](F)C[C@H]2C(=O)N[C@@H](c2ccccc2)c2ccc(C3CC3)c(F)n2)oc1=O [Compound 306, (2S,4R)-N-[(S)-(5-cyclopropyl-6-fluoropyridin-2-yl)(phenyl)methyl]-4-fluoro-1-[2-(4-methyl-5-oxo-4,5-dihydro-1,3,4-oxadiazol-2-yl)acetyl]pyrrolidine-2-carboxamide] |
| 0.5 | 0.01 | > 100 | O=C(N[C@@H](c1ccccc1)c1ccc(C2CC2)c(F)n1)[C@@H]1C[C@@H](F)CN1C(=O)Cc1[nH]nnc1C(F)(F)F [Compound 307, (2S,4R)-N-[(S)-(5-cyclopropyl-6-fluoropyridin-2-yl)(phenyl)methyl]-4-fluoro-1-{2-[4-(trifluoromethyl)-1H-1,2,3-triazol-5-yl]acetyl}pyrrolidine-2-carboxamide] |
